Values quoted from earlier work in patent publication US10154967B2, “2,2′,6,6′-tetraisopropyl-4,4′-biphenol lipid microsphere preparations and preparation methods therefor” (XI'AN LIBANG PHARMACEUTICAL CO., LTD, priority 2012, dated 2018).

What was measured:
GABA receptors [1] = system: GABA receptors
NMDA receptors = conditions: regulating the Ca2+ influx in Ca2+ channels
GABA receptors [2] = system: GABA receptors; remark: listed apart in the source
[3] = system: excitotoxic effect induced by kainate (kainic acid)
[4] = compared with propofol

## CC(C)c1cc(-c2cc(C(C)C)c(O)c(C(C)C)c2)cc(C(C)C)c1O [biphenol]
patients
  loss of consciousness: does not cause the patients to lose consciousness
GABA receptors [1]
  action at GABA receptors: agonist
NMDA receptors
  action at NMDA receptors: antagonist
GABA receptors [2]
  affinity towards GABA receptors: strong affinity
[3]
  protection against the excitotoxic effect induced by kainate: protection
[4]
  antioxidant strength: significantly stronger antioxidant than propofol
other
  lipid solubility: highly lipid soluble
  solubility in water: difficult to dissolve in water
